What follows are molecules tested on test plant species (assay: Post-emergent herbicidal activity test (greenhouse, foliar spray, visual growth reduction)). Details: post-emergence, 336 h, ECHCG: barnyardgrass (Echinochloa crus-galli), 140 g ai/ha, 14 days after application, read-out: Visual Growth Reduction (%) 14 Days After Application, ECHCG.
Type: in vivo
In short: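 Visual percent injury (0-100) rated 14 d after treatment, relative to nontreated and solvent-blank plants. Test plants at first or second true leaf stage received an overhead track-sprayer application at 187 L/ha. Compounds were formulated in aqueous acetone/DMSO carrier containing crop oil concentrate and X-77 surfactant.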

Row | Compound | pest or weed control at 140 g/ha [%]
1 | COC(=O)c1nc(-c2ccc3c(c2OC)OC(F)(F)O3)c(F)cc1Cl [F235, Methyl 3-chloro-6-(2,2-difluoro-4-methoxybenzo[d][1,3]dioxol-5-yl)-5-fluoropicolinate] | 95 to 100
2 | COC(=O)c1nc(-c2ccc(C(F)(F)F)c(OC)c2)c(F)cc1Cl [F295, Methyl 3-chloro-5-fluoro-6-(3-methoxy-4-(trifluoromethyl)phenyl)picolinate] | 0 to 29

Same assay, conditions: post-emergence, 336 h, IPOHE: ivy-leaf morning glory (Ipomoea hederacea), 140 g ai/ha, 14 days after application, read-out: Visual Growth Reduction (%) 14 Days After Application, IPOHE

Row | Compound | pest or weed control at 140 g/ha [%]
3 | COC(=O)c1nc(-c2ccc3c(c2OC)OC(F)(F)O3)c(F)cc1Cl [F235, Methyl 3-chloro-6-(2,2-difluoro-4-methoxybenzo[d][1,3]dioxol-5-yl)-5-fluoropicolinate] | 95 to 100
4 | COC(=O)c1nc(-c2ccc(C(F)(F)F)c(OC)c2)c(F)cc1Cl [F295, Methyl 3-chloro-5-fluoro-6-(3-methoxy-4-(trifluoromethyl)phenyl)picolinate] | 60 to 74

Same assay, conditions: post-emergence, 336 h, KCHSC: kochia (Bassia scoparia), 140 g ai/ha, 14 days after application, read-out: Visual Growth Reduction (%) 14 Days After Application, KCHSC

Row | Compound | pest or weed control at 140 g/ha [%]
5 | COC(=O)c1nc(-c2ccc3c(c2OC)OC(F)(F)O3)c(F)cc1Cl [F235, Methyl 3-chloro-6-(2,2-difluoro-4-methoxybenzo[d][1,3]dioxol-5-yl)-5-fluoropicolinate] | 95 to 100
6 | COC(=O)c1nc(-c2ccc(C(F)(F)F)c(OC)c2)c(F)cc1Cl [F295, Methyl 3-chloro-5-fluoro-6-(3-methoxy-4-(trifluoromethyl)phenyl)picolinate] | 0 to 29

Same assay, conditions: post-emergence, 336 h, ORYSA: rice (Oryza sativa), 140 g ai/ha, 14 days after application, read-out: Visual Growth Reduction (%) 14 Days After Application, ORYSA

Row | Compound | pest or weed control at 140 g/ha [%]
7 | COC(=O)c1nc(-c2ccc3c(c2OC)OC(F)(F)O3)c(F)cc1Cl [F235, Methyl 3-chloro-6-(2,2-difluoro-4-methoxybenzo[d][1,3]dioxol-5-yl)-5-fluoropicolinate] | 45 to 59
8 | COC(=O)c1nc(-c2ccc(C(F)(F)F)c(OC)c2)c(F)cc1Cl [F295, Methyl 3-chloro-5-fluoro-6-(3-methoxy-4-(trifluoromethyl)phenyl)picolinate] | 0 to 29

Same assay, conditions: post-emergence, 336 h, SETFA: giant foxtail (Setaria faberi), 140 g ai/ha, 14 days after application, read-out: Visual Growth Reduction (%) 14 Days After Application, SETFA

Row | Compound | pest or weed control at 140 g/ha [%]
9 | COC(=O)c1nc(-c2ccc3c(c2OC)OC(F)(F)O3)c(F)cc1Cl [F235, Methyl 3-chloro-6-(2,2-difluoro-4-methoxybenzo[d][1,3]dioxol-5-yl)-5-fluoropicolinate] | 95 to 100
10 | COC(=O)c1nc(-c2ccc(C(F)(F)F)c(OC)c2)c(F)cc1Cl [F295, Methyl 3-chloro-5-fluoro-6-(3-methoxy-4-(trifluoromethyl)phenyl)picolinate] | 0 to 29

Same assay, conditions: post-emergence, 336 h, SORVU: grain sorghum (Sorghum vulgare), 140 g ai/ha, 14 days after application, read-out: Visual Growth Reduction (%) 14 Days After Application, SORVU

Row | Compound | pest or weed control at 140 g/ha [%]
11 | COC(=O)c1nc(-c2ccc3c(c2OC)OC(F)(F)O3)c(F)cc1Cl [F235, Methyl 3-chloro-6-(2,2-difluoro-4-methoxybenzo[d][1,3]dioxol-5-yl)-5-fluoropicolinate] | 95 to 100
12 | COC(=O)c1nc(-c2ccc(C(F)(F)F)c(OC)c2)c(F)cc1Cl [F295, Methyl 3-chloro-5-fluoro-6-(3-methoxy-4-(trifluoromethyl)phenyl)picolinate] | 0 to 29

Same assay, conditions: post-emergence, 336 h, STEME: common chickweed (Stellaria media), 140 g ai/ha, 14 days after application, read-out: Visual Growth Reduction (%) 14 Days After Application, STEME

Row | Compound | pest or weed control at 140 g/ha [%]
13 | COC(=O)c1nc(-c2ccc3c(c2OC)OC(F)(F)O3)c(F)cc1Cl [F235, Methyl 3-chloro-6-(2,2-difluoro-4-methoxybenzo[d][1,3]dioxol-5-yl)-5-fluoropicolinate] | 85 to 94
14 | COC(=O)c1nc(-c2ccc(C(F)(F)F)c(OC)c2)c(F)cc1Cl [F295, Methyl 3-chloro-5-fluoro-6-(3-methoxy-4-(trifluoromethyl)phenyl)picolinate] | 0 to 29

Same assay, conditions: post-emergence, 336 h, TRZAS: wheat, spring (Triticum aestivum), 140 g ai/ha, 14 days after application, read-out: Visual Growth Reduction (%) 14 Days After Application, TRZAS

Row | Compound | pest or weed control at 140 g/ha [%]
15 | COC(=O)c1nc(-c2ccc3c(c2OC)OC(F)(F)O3)c(F)cc1Cl [F235, Methyl 3-chloro-6-(2,2-difluoro-4-methoxybenzo[d][1,3]dioxol-5-yl)-5-fluoropicolinate] | 95 to 100
16 | COC(=O)c1nc(-c2ccc(C(F)(F)F)c(OC)c2)c(F)cc1Cl [F295, Methyl 3-chloro-5-fluoro-6-(3-methoxy-4-(trifluoromethyl)phenyl)picolinate] | 0 to 29

Same assay, conditions: post-emergence, 336 h, blackgrass (Alopecurus myosuroides), 14 Days After Application, 140 g ai/ha, read-out: Visual Growth Reduction (%) ALOMY

Row | Compound | pest or weed control at 140 g/ha [%]
17 | COC(=O)c1nc(-c2ccc3c(c2OC)OC(F)(F)O3)c(F)cc1Cl [F235, Methyl 3-chloro-6-(2,2-difluoro-4-methoxybenzo[d][1,3]dioxol-5-yl)-5-fluoropicolinate] | 60 to 74
18 | COC(=O)c1nc(-c2ccc(C(F)(F)F)c(OC)c2)c(F)cc1Cl [F295, Methyl 3-chloro-5-fluoro-6-(3-methoxy-4-(trifluoromethyl)phenyl)picolinate] | 0 to 29

Same assay, conditions: post-emergence, 336 h, canada thistle (Cirsium arvense), 14 Days After Application, 140 g ai/ha, read-out: Visual Growth Reduction (%) CIRAR

Row | Compound | pest or weed control at 140 g/ha [%]
19 | COC(=O)c1nc(-c2ccc3c(c2OC)OC(F)(F)O3)c(F)cc1Cl [F235, Methyl 3-chloro-6-(2,2-difluoro-4-methoxybenzo[d][1,3]dioxol-5-yl)-5-fluoropicolinate] | 95 to 100
20 | COC(=O)c1nc(-c2ccc(C(F)(F)F)c(OC)c2)c(F)cc1Cl [F295, Methyl 3-chloro-5-fluoro-6-(3-methoxy-4-(trifluoromethyl)phenyl)picolinate] | 60 to 74

Same assay, conditions: post-emergence, 336 h, crabgrass (Digitaria sanguinalis), 14 Days After Application, 140 g ai/ha, read-out: Visual Growth Reduction (%) DIGSA

Row | Compound | pest or weed control at 140 g/ha [%]
21 | COC(=O)c1nc(-c2ccc3c(c2OC)OC(F)(F)O3)c(F)cc1Cl [F235, Methyl 3-chloro-6-(2,2-difluoro-4-methoxybenzo[d][1,3]dioxol-5-yl)-5-fluoropicolinate] | 95 to 100
22 | COC(=O)c1nc(-c2ccc(C(F)(F)F)c(OC)c2)c(F)cc1Cl [F295, Methyl 3-chloro-5-fluoro-6-(3-methoxy-4-(trifluoromethyl)phenyl)picolinate] | 45 to 59

Same assay, conditions: post-emergence, 336 h, lambsquarters (Chenopodium album), 14 Days After Application, 140 g ai/ha, read-out: Visual Growth Reduction (%) CHEAL

Row | Compound | pest or weed control at 140 g/ha [%]
23 | COC(=O)c1nc(-c2ccc3c(c2OC)OC(F)(F)O3)c(F)cc1Cl [F235, Methyl 3-chloro-6-(2,2-difluoro-4-methoxybenzo[d][1,3]dioxol-5-yl)-5-fluoropicolinate] | 95 to 100
24 | COC(=O)c1nc(-c2ccc(C(F)(F)F)c(OC)c2)c(F)cc1Cl [F295, Methyl 3-chloro-5-fluoro-6-(3-methoxy-4-(trifluoromethyl)phenyl)picolinate] | 30 to 44

Same assay, conditions: post-emergence, 336 h, redroot pigweed (Amaranthus retroflexus), 14 Days After Application, 140 g ai/ha, read-out: Visual Growth Reduction (%) AMARE

Row | Compound | pest or weed control at 140 g/ha [%]
25 | COC(=O)c1nc(-c2ccc3c(c2OC)OC(F)(F)O3)c(F)cc1Cl [F235, Methyl 3-chloro-6-(2,2-difluoro-4-methoxybenzo[d][1,3]dioxol-5-yl)-5-fluoropicolinate] | 95 to 100
26 | COC(=O)c1nc(-c2ccc(C(F)(F)F)c(OC)c2)c(F)cc1Cl [F295, Methyl 3-chloro-5-fluoro-6-(3-methoxy-4-(trifluoromethyl)phenyl)picolinate] | 0 to 29

Same assay, conditions: post-emergence, 336 h, wild oat (Avena fatua), 14 Days After Application, 140 g ai/ha, read-out: Visual Growth Reduction (%) AVEFA

Row | Compound | pest or weed control at 140 g/ha [%]
27 | COC(=O)c1nc(-c2ccc3c(c2OC)OC(F)(F)O3)c(F)cc1Cl [F235, Methyl 3-chloro-6-(2,2-difluoro-4-methoxybenzo[d][1,3]dioxol-5-yl)-5-fluoropicolinate] | 95 to 100
28 | COC(=O)c1nc(-c2ccc(C(F)(F)F)c(OC)c2)c(F)cc1Cl [F295, Methyl 3-chloro-5-fluoro-6-(3-methoxy-4-(trifluoromethyl)phenyl)picolinate] | 0 to 29

Same assay, conditions: post-emergence, 336 h, yellow nutsedge (Cyperus esculentus), 14 Days After Application, 140 g ai/ha, read-out: Visual Growth Reduction (%) CYPES

Row | Compound | pest or weed control at 140 g/ha [%]
29 | COC(=O)c1nc(-c2ccc3c(c2OC)OC(F)(F)O3)c(F)cc1Cl [F235, Methyl 3-chloro-6-(2,2-difluoro-4-methoxybenzo[d][1,3]dioxol-5-yl)-5-fluoropicolinate] | 0 to 29
30 | COC(=O)c1nc(-c2ccc(C(F)(F)F)c(OC)c2)c(F)cc1Cl [F295, Methyl 3-chloro-5-fluoro-6-(3-methoxy-4-(trifluoromethyl)phenyl)picolinate] | 75 to 84

From US20230017045A1, “PYRIDINE AND PYRIMIDINE CARBOXYLATE HERBICIDES AND METHODS OF USE THEREOF” (Dow AgroSciences LLC, priority 2017, published 2023)
